Legend:
Type in all cases: in vivo
[1] = tested on: sedge, umbrella (small-flower umbrella sedge, Cyperus difformis); test: Test B flooded paddy test; settings: Cyperus difformis, 360 h, Flood, 250 g ai/ha; visually evaluated after 13 to 15 d; read-out: Plant response rating, Sedge, Umbrella (0 to 100 scale where 0 is no effect and 100 is complete control)
Summary of the method: (§1)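 Flooding to 3 cm over soil accompanied treatment, which consisted of adding compound to the standing water around 2-leaf plants; depth was then maintained. Visual assessment versus controls followed at 13 to 15 d (scale 0–100, 0 meaning no effect).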

[2] = tested on: barnyardgrass (Echinochloa crus-galli); test: Test B flooded paddy test; settings: Echinochloa crus-galli, 360 h, Flood, 250 g ai/ha; visually evaluated after 13 to 15 d; read-out: Plant response rating, Barnyardgrass (0 to 100 scale where 0 is no effect and 100 is complete control)
Summary of the method: as §1

[3] = tested on: ducksalad (Heteranthera limosa); test: Test B flooded paddy test; settings: Heteranthera limosa, 360 h, Flood, 250 g ai/ha; visually evaluated after 13 to 15 d; read-out: Plant response rating, Ducksalad (0 to 100 scale where 0 is no effect and 100 is complete control)
Summary of the method: as §1

rice (Oryra sativa) = test: Test B flooded paddy test; settings: Oryza sativa, 360 h, Flood, 250 g ai/ha; visually evaluated after 13 to 15 d; read-out: Plant response rating, Rice (0 to 100 scale where 0 is no effect and 100 is complete control)
Summary of the method: as §1

[4] = tested on: ragweed (common ragweed, Ambrosia elatior); test: Test A preemergence; settings: Ambrosia artemisiifolia, pre-emergence, 240 h, Preemergence
Summary of the method: (§2)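 Compounds were formulated in a non-phytotoxic solvent mixture with surfactant and applied as a preemergence directed soil spray after seeding, or sprayed postemergence over plants 2 to 10 cm tall at the one- to two-leaf stage. Evaluation after about 10 d compared treated with untreated controls, using a scale from 0 (no effect) to 100 (complete control).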

Kochia (Kochia scoparia) [5] = test: Test A preemergence; settings: Bassia scoparia, pre-emergence, 240 h, Preemergence
Summary of the method: as §2

[6] = tested on: barnyardgrass (Echinochloa crus-galli); test: Test A preemergence; settings: Echinochloa crus-galli, pre-emergence, 240 h, Preemergence
Summary of the method: as §2

[7] = tested on: ryegrass, Italian (Italian ryegrass, Lolium multiflorum); test: Test A preemergence; settings: Lolium multiflorum, pre-emergence, 240 h, Preemergence
Summary of the method: as §2

[8] = tested on: pigweed (Amaranthus retroflexus); test: Test A preemergence; settings: Amaranthus retroflexus, pre-emergence, 240 h, Preemergence
[9] = tested on: giant foxtail (Setaria faberii); test: Test A preemergence; settings: Setaria faberi, pre-emergence, 240 h, Preemergence
Summary of the method: as §2

[10] = tested on: Galium (catchweed bedstraw, Galium aparine); test: Test A postemergence; settings: Galium, post-emergence, 240 h, Postemergence, read-out: Galium plant response rating (0 to 100 scale)
Summary of the method: as §2

[11] = tested on: ragweed (common ragweed, Ambrosia elatior); test: Test A postemergence; settings: Ambrosia artemisiifolia, post-emergence, 240 h, Postemergence, read-out: Ragweed plant response rating (0 to 100 scale)
Summary of the method: as §2

Kochia (Kochia scoparia) [12] = test: Test A postemergence; settings: Bassia scoparia, post-emergence, 240 h, Postemergence, read-out: Kochia plant response rating (0 to 100 scale)
Summary of the method: as §2

[13] = tested on: blackgrass (Alopecurus myosuroides); test: Test A postemergence; settings: Alopecurus myosuroides, post-emergence, 240 h, Postemergence, read-out: Blackgrass plant response rating (0 to 100 scale)
Summary of the method: as §2

[14] = tested on: barnyardgrass (Echinochloa crus-galli); test: Test A postemergence; settings: Echinochloa crus-galli, post-emergence, 240 h, Postemergence
Summary of the method: as §2

[15] = tested on: ryegrass, Italian (Italian ryegrass, Lolium multiflorum); test: Test A postemergence; settings: Lolium multiflorum, post-emergence, 240 h, Postemergence, read-out: Ryegrass, Italian plant response rating (0 to 100 scale)
Summary of the method: as §2

[16] = tested on: wheat (Triticum aestivum); test: Test A postemergence; settings: Triticum aestivum, post-emergence, 240 h, Postemergence, read-out: Wheat plant response rating (0 to 100 scale)
Summary of the method: as §2

[17] = tested on: pigweed (Amaranthus retroflexus); test: Test A postemergence; settings: Amaranthus retroflexus, post-emergence, 240 h, Postemergence, read-out: Pigweed plant response rating (0 to 100 scale)
Summary of the method: as §2

corn (Zea mays) = test: Test A postemergence; settings: Zea mays, post-emergence, 240 h, Postemergence, read-out: Corn plant response rating (0 to 100 scale)
Summary of the method: as §2

[18] = tested on: giant foxtail (Setaria faberii); test: Test A postemergence; settings: Setaria faberi, post-emergence, 240 h, Postemergence, read-out: Foxtail, Giant plant response rating (0 to 100 scale)
Summary of the method: as §2

[19] = 125 g ai/ha, visual rating about 10 d after treatment
[20] = 31 g ai/ha, 0 is no effect, 100 is complete control

SMILES: CN1C[C@H](c2ccc(C(F)(F)F)cc2)[C@@H](C(=O)Nc2ccc(F)nc2F)C1=O [Compound 1347]
- pest or weed control at 250 g/ha [1]: 0%
- pest or weed control at 250 g/ha [2]: 90%
- pest or weed control at 250 g/ha [3]: 98%
- pest or weed control at 250 g/ha (rice (Oryra sativa)): 0%
- pest or weed control at 31 g/ha ([4]; 31 g ai/ha, 0 to 100 scale where 0 is no effect and 100 is complete control, read-out: Ragweed plant response rating): 30%
- pest or weed control at 125 g/ha ([4]; 125 g ai/ha, 0 to 100 scale (0 no effect, 100 complete control), read-out: Plant response rating, Ragweed): 90%
- pest or weed control at 31 g/ha (Kochia (Kochia scoparia) [5]; 31 g ai/ha, 0 to 100 scale where 0 is no effect and 100 is complete control, read-out: Kochia plant response rating): 90%
- pest or weed control at 125 g/ha (Kochia (Kochia scoparia) [5]; 125 g ai/ha, 0 to 100 scale (0 no effect, 100 complete control), read-out: Plant response rating, Kochia): 90%
- pest or weed control at 31 g/ha ([6]; 31 g ai/ha, 0 to 100 scale where 0 is no effect and 100 is complete control, read-out: Barnyardgrass plant response rating): 80%
- pest or weed control at 125 g/ha ([6]; 125 g ai/ha, 0 to 100 scale (0 no effect, 100 complete control), read-out: Plant response rating, Barnyardgrass): 100%
- pest or weed control at 31 g/ha ([7]; 31 g ai/ha, 0 to 100 scale where 0 is no effect and 100 is complete control, read-out: Ryegrass, Italian plant response rating): 0%
- pest or weed control at 125 g/ha ([7]; 125 g ai/ha, 0 to 100 scale (0 no effect, 100 complete control), read-out: Plant response rating, Ryegrass, Italian): 30%
- pest or weed control at 31 g/ha ([8]; 31 g ai/ha, 0 to 100 scale where 0 is no effect and 100 is complete control, read-out: Pigweed plant response rating): 90%
- pest or weed control at 125 g/ha ([8]; 125 g ai/ha, 0 to 100 scale (0 no effect, 100 complete control), read-out: Plant response rating, Pigweed): 100%
- pest or weed control at 31 g/ha ([9]; 31 g ai/ha, 0 to 100 scale where 0 is no effect and 100 is complete control, read-out: Foxtail, Giant plant response rating): 100%
- pest or weed control at 125 g/ha ([9]; 125 g ai/ha, 0 to 100 scale (0 no effect, 100 complete control), read-out: Plant response rating, Foxtail, Giant): 100%
- pest or weed control at 125 g/ha [10, 19]: 70%
- pest or weed control at 31 g/ha [10, 20]: 70%
- pest or weed control at 125 g/ha [11, 19]: 70%
- pest or weed control at 31 g/ha [11, 20]: 40%
- pest or weed control at 125 g/ha (Kochia (Kochia scoparia) [12]; [19]): 80%
- pest or weed control at 31 g/ha (Kochia (Kochia scoparia) [12]; [20]): 60%
- pest or weed control at 125 g/ha [13, 19]: 60%
- pest or weed control at 31 g/ha [13, 20]: 30%
- pest or weed control at 125 g/ha ([14]; 125 g ai/ha, visual rating about 10 d after treatment, read-out: Barnyardgrass plant response rating (0 to 100 scale, 0 no effect, 100 complete control)): 90%
- pest or weed control at 31 g/ha ([14]; 31 g ai/ha, 0 is no effect, 100 is complete control, read-out: Barnyardgrass plant response rating (0 to 100 scale)): 70%
- pest or weed control at 125 g/ha [15, 19]: 40%
- pest or weed control at 31 g/ha [15, 20]: 0%
- plant injury at 125 g/ha [16, 19]: 30%
- plant injury at 31 g/ha [16, 20]: 20%
- pest or weed control at 125 g/ha [17, 19]: 90%
- pest or weed control at 31 g/ha [17, 20]: 50%
- plant injury at 125 g/ha (corn (Zea mays); [19]): 30%
- plant injury at 31 g/ha (corn (Zea mays); [20]): 30%
- pest or weed control at 125 g/ha [18, 19]: 90%
- pest or weed control at 31 g/ha [18, 20]: 70%

From patent US12077503B2, “Substituted cyclic amides and their use as herbicides” (FMC CORPORATION, priority 2015, dated 2024)
